Source: patent US6348445B1, “Biologically active peptides with reduced toxicity in animals and a method for preparing same” (priority 1992, dated 2002)
In brackets after ≈: the same amount, converted by molar mass. Read-outs that look alike come from different tables or passages of the source. Where a SMILES comes first, the peptide text is derived from it. Where no end group is shown, it is not given here. [ ]: non-standard residue; d: D form. The star is where a group is joined. hArg = N=C(N)NCCCC[C@H](N)C(=O)O; Octanoyl = CCCCCCCC(=O)*

Legend:
[1] = test system: P. aeruginosa strain ATCC 27853; type: cell-based
Method in brief: (§1)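 Peptides serially diluted 1:2 to final 0.25–256 μg/ml in Mueller Hinton broth, inoculated with 1-5×10^5 CFUs/ml from mid-log culture. Incubated 16-20 hours at 37° C. MIC = lowest peptide concentration giving a clear well.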

[2] = test system: E. coli ATCC strain 25922; experiment: Minimal Inhibitory Concentration, microtiter broth dilution; type: cell-based
Method in brief: as §1

[3] = test system: S. aureus ATCC 29213; type: cell-based; conditions: ATCC 29213
[4] = test system: C. albicans; type: cell-based
Method in brief: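 Peptides serially diluted 1:2 to final 0.25–256 μg/ml; inoculum 1-5×10^5 CFU/ml from mid-log culture in full-strength Mueller Hinton broth. Incubated 16-20 h at 37° C. MIC taken as lowest peptide concentration giving a clear well.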

[5] = test system: S. mutans; experiment: anaerobic anti-microbial susceptibility test (MIC); type: cell-based; parameters: unit not given here; conditions: 24-48 hours
[6] = test system: A. viscosus; experiment: anaerobic anti-microbial susceptibility test (MIC); type: cell-based; conditions: 24-48 hours
[7] = test system: P. gingivalis; conditions: anaerobic, 24-48 hours
[8] = test system: S.aureus strain ATCC 25923; experiment: Minimal Inhibitory Concentration, microtiter broth dilution; type: cell-based; conditions: Mueller Hinton broth, 16-20 hours at 37° C.
Description: Table I, which follows, indicates the Minimal Inhibitory Concentration (MIC) in […] of various peptides against S.aureus strain ATCC 25923(S), P. aeruginosa strain ATCC 27853(P), E. coli ATCC strain 25922(E), and C. 4albicans (CA). […] The peptides are unsubstituted at the N-terminal; substituted with an acetyl group at the N-terminal, as indicated by Ac-; substituted with an octanoyl group at the N-terminal, as indicated by Oct-; substituted with spinogosine, as indicated by Sph-; substituted with a succinyl group, as indicated by Suc-; substituted with a hexanoyl group, as indicated by Hex-; substituted with a heptanoyl group, as indicated by Hep-; substituted with a valeryl group, as indicated by Val-; substituted with a myristryl group, as indicated by Myr-; or substituted with an ibuprofyl group, as indicated by Ibu-;
The procedure for the anti-bacterial assay is based upon the guidelines of the National Committee for Clinical Laboratory Standards, Document M7-T2, Volume 8, No. 8, 1988, which document is entirely incorporated herein by reference.
Stock solutions of peptides, with and without the appropriate substitutions, were prepared at a concentration of 512 μg/ml in sterile deionized distilled water and stored at −70° C.
The stock peptide solution was diluted in serial dilutions (1:2) down the wells of a microtiter plate so that the final concentrations of peptides in the wells were 0.25, 0.50, 1, 2, 4, 8, 16, 32, 64, 128 and 256 μg/ml. 1-5×10^5 CFUs/ml of either S. aureus ATCC 25923, E. coli ATCC 25922, P. aeruginosa ATCC 27853, or C. albicans, were added to the wells in full strength Mueller Hinton broth (BBL 11443) from a mid-log culture. The inoculum was standardized spectrophotometrically at 600 nm and was verified by colony counts. The plates were incubated for 16-20 hours at 37° C., and the minimal inhibitory concentration (MIC) for each peptide was determined. Minimal inhibitory concentration is defined as the lowest concentration of peptide which produces a clear well in the microtiter plate. The minimal inhibitory concentration of each of the peptides with and/or without the appropriate substitutions is given in Table I below.

[9] = P. aeruginosa strain ATCC 27853, Table I
[10] = E. coli ATCC strain 25922, Table I

Compound | MIC P. aeruginosa ATCC 27853 ([1]; ATCC 27853) [µg/mL] | MIC E. coli ATCC 25922 ([2]; ATCC strain 25922) [µg/mL] | MIC S. aureus ATCC 29213 [3] [µg/mL] | Minimal Inhibitory Concentration P ([1]; ATCC 27853) [µg/mL] | Minimal Inhibitory Concentration E ([2]; ATCC strain 25922) [µg/mL] | Minimal Inhibitory Concentration CA [4] [µg/mL] | MIC S. mutans [5] | MIC A. viscos [6] [μl/ml] | MIC P. gingivalis (strain) 9-14K-1 [7] [μl/ml] | MIC P. gingivalis (strain) 381 [7] [μl/ml] | MIC P. gingivalis (strain) 450 [7] [μl/ml] | MIC P. gingivalis (strain) A7A1-28 [7] [μl/ml] | MIC P. gingivalis (strain) FAY-19M-1 [7] [μl/ml] | Minimal Inhibitory Concentration S [8] [µg/mL] | Minimal Inhibitory Concentration P [1, 9] [µg/mL] | Minimal Inhibitory Concentration E [2, 10] [µg/mL] | Minimal Inhibitory Concentration CA ([4]; C. albicans, Table I) [µg/mL]
CC[C@H](C)[C@H](NC(=O)CNCS(=O)(=O)O)C(=O)NCC(=O)N[C@@H](CCCCNCS(=O)(=O)O)C(=O)N[C@@H](Cc1ccccc1)C(=O)N[C@@H](CC(C)C)C(=O)N[C@@H](CCCCNCS(=O)(=O)O)C(=O)N[C@@H](CCCCNCS(=O)(=O)O)C(=O)N[C@@H](C)C(=O)N[C@@H](CCCCNCS(=O)(=O)O)C(=O)N[C@@H](CCCCNCS(=O)(=O)O)C(=O)N[C@@H](Cc1ccccc1)C(=O)NCC(=O)N[C@@H](CCCCNCS(=O)(=O)O)C(=O)N[C@@H](C)C(=O)N[C@@H](Cc1ccccc1)C(=O)N[C@H](C(=O)N[C@@H](CCCCNCS(=O)(=O)O)C(=O)N[C@H](C(=O)N[C@@H](CCSC)C(=O)N[C@@H](CCCCNCS(=O)(=O)O)C(=O)N[C@@H](CCCCNCS(=O)(=O)O)C(N)=O)[C@@H](C)CC)C(C)C | 64 (≈ 18.6 µM) | 128 (≈ 37.3 µM) | 64 (≈ 18.6 µM) | – | – | – | – | – | – | – | – | – | – | – | – | – | –
CCCCCCCC(=O)N[C@@H](CCCCNC(=N)N)C(=O)N[C@H](C(=O)N[C@@H](C)C(=O)NCC(=O)N[C@@H](CCCCNC(=N)N)C(=O)N[C@H](C(=O)N[C@@H](C)C(=O)N[C@@H](CCCCNC(=N)N)C(=O)N[C@H](C(=O)N[C@@H](C)C(=O)NCC(=O)N[C@@H](CCCCNC(=N)N)C(=O)N[C@H](C(=O)N[C@@H](C)C(=O)N[C@@H](CCCCNC(=N)N)C(=O)N[C@H](C(=O)N[C@@H](C)C(=O)NCC(=O)N[C@@H](CCCCNC(=N)N)C(=O)N[C@H](C(=O)N[C@@H](C)C(N)=O)[C@@H](C)CC)[C@@H](C)CC)[C@@H](C)CC)[C@@H](C)CC)[C@@H](C)CC)[C@@H](C)CC [Oct-(SEQ ID NO: 66)-NH2] (Octanoyl-[hArg]IAG[hArg]IA[hArg]IAG[hArg]IA[hArg]IAG[hArg]IA-NH2) | – | – | – | 16 | 8 | 256 | 32 | 16 | 2 | 4 | 2 | 8 | 2 | – | – | – | –
CCCCCCCC(=O)N[C@@H](CCCCN)C(=O)N[C@H](C(=O)N[C@@H](C)C(=O)N[C@@H](CCCCN)C(=O)N[C@@H](CCCCN)C(=O)N[C@H](C(=O)N[C@@H](C)C(=O)N[C@@H](CCCCN)C(=O)N[C@H](C(=O)N[C@@H](C)C(=O)N[C@@H](CCCCN)C(=O)N[C@@H](CCCCN)C(=O)N[C@H](C(=O)N[C@@H](C)C(=O)N[C@@H](CCCCN)C(=O)N[C@H](C(=O)N[C@@H](C)C(=O)N[C@@H](CCCCN)C(=O)N[C@@H](CCCCN)C(=O)N[C@H](C(=O)N[C@@H](C)C(=O)O)[C@@H](C)CC)[C@@H](C)CC)[C@@H](C)CC)[C@@H](C)CC)[C@@H](C)CC)[C@@H](C)CC [Oct-(SEQ ID NO: 86)-OH] (Octanoyl-KIAKKIAKIAKKIAKIAKKIA-OH) | – | – | – | – | – | – | 16 | 32 | 1 | 1 | 1 | 1 | 1 | 8 | 4 | 2 | 128
CCCCCCCC(=O)N[C@@H](CCCCN)C(=O)N[C@@H](CCCCN)C(=O)N[C@@H](CC(C)C)C(=O)N[C@@H](C)C(=O)N[C@@H](CCCCN)C(=O)N[C@@H](CC(C)C)C(=O)N[C@@H](C)C(=O)N[C@@H](CCCCN)C(=O)N[C@@H](CCCCN)C(=O)N[C@@H](CC(C)C)C(=O)N[C@@H](C)C(N)=O [Oct-(SEQ ID NO: 123)-NH2] (Octanoyl-KKLAKLAKKLA-NH2) | – | – | – | – | – | – | – | – | – | – | – | – | – | 32 | 16 | 32 | 32
CCCCCCCC(=O)N[C@@H](CCCCN)C(=O)N[C@@H](CC(C)C)C(=O)N[C@@H](C)C(=O)N[C@@H](CCCCN)C(=O)N[C@@H](CC(C)C)C(=O)N[C@@H](C)C(=O)N[C@@H](CCCCN)C(=O)N[C@@H](CCCCN)C(=O)N[C@@H](CC(C)C)C(=O)N[C@@H](C)C(N)=O [Oct-(SEQ ID NO: 124)-NH2] (Octanoyl-KLAKLAKKLA-NH2) | – | – | – | – | – | – | – | – | – | – | – | – | – | 128 | 64 | 256 | 128
CCCCCCCC(=O)N[C@@H](CCCCN)C(=O)N[C@@H](Cc1c[nH]c2ccccc12)C(=O)N[C@@H](CCCCN)C(=O)N[C@@H](CC(C)C)C(=O)N[C@@H](Cc1ccccc1)C(=O)N[C@@H](CCCCN)C(=O)N[C@@H](CCCCN)C(=O)N[C@H](C(=O)N[C@@H](CCC(=O)O)C(=O)N[C@@H](CCCCN)C(=O)N[C@H](C(N)=O)C(C)C)[C@@H](C)CC [Oct-(SEQ ID NO: 136)-NH2] (Octanoyl-KWKLFKKIEKV-NH2) | – | – | – | 64 | – | 256 | – | – | – | – | – | – | – | 256 | – | 256 | –
CCCCCCCC(=O)N[C@@H](CCCCN)C(=O)N[C@H](C(=O)N[C@@H](C)C(=O)N[C@@H](CCCCN)C(=O)N[C@@H](CCCCN)C(=O)N[C@H](C(=O)N[C@@H](C)C(=O)N[C@@H](CCCCN)C(=O)N[C@H](C(=O)N[C@@H](C)C(=O)N[C@@H](CCCCN)C(=O)N[C@@H](CCCCN)C(=O)N[C@H](C(=O)N[C@@H](C)C(N)=O)[C@@H](C)CC)[C@@H](C)CC)[C@@H](C)CC)[C@@H](C)CC [Oct-(SEQ ID NO: 153)-NH2] (Octanoyl-KIAKKIAKIAKKIA-NH2) | – | – | – | – | – | – | – | – | – | – | – | – | – | 8 | 8 | 32 | 64
GIGKFLKKAKKFGKAFVKIMKK-NH2 [SEQ ID NO: 155-NH2] | 32 | 16 | 16 | – | – | – | – | – | – | – | – | – | – | – | – | – | –
H-KIAKKIAKIAKKIAKIAKKIA-OH [(SEQ ID NO: 86)-OH, (Lys Ile Ala Lys Lys Ile Ala)3] | – | – | – | – | – | – | 16 | 32 | 16 | 16 | 4 | 4 | 8 | 128 | 32 | 2 | 256
